From BindingDB's records for doi:10.7270/Q2PG1Q5Z (Broad Institute, 2010)

Target: T1, Alkanal monooxygenase alpha chain (Vibrio harveyi, UniProt P07740)
T1 sequence (P07740 whole entry): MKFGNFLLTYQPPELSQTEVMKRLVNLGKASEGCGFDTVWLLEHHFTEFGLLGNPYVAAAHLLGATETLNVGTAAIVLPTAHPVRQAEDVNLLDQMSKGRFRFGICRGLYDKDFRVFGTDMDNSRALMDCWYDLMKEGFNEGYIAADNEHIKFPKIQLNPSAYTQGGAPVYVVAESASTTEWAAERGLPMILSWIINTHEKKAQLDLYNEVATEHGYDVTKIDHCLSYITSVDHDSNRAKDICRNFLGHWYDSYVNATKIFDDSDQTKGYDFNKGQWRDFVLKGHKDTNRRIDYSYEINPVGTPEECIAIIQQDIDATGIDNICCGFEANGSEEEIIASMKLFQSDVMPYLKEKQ
Assay: inhibition of V. harveyi AI-2 signalling – luminescence, dose retest, Vibrio harveyi, confirmation (AID 2735)

C=Cn1c(C(=O)O)ccc1-c1ccc(CC)cc1
EC50: 25.8 µM

COc1cc(NC(=O)CN2C(=O)NC(c3ccccc3)(c3ccccc3)C2=O)cc(OC)c1 [MLS001176525]
EC50: 10 µM

CCc1ccc(S(=O)(=O)Nc2ccc(Br)cn2)cc1 [MLS001211346]
EC50: 18.1 µM

CCCc1ccc(S(=O)(=O)N(C)S(=O)(=O)c2ccc(F)cc2)cc1 [N-(4-fluorophenyl)sulfonyl-N-methyl-4-propylbenzenesulfonamide]
EC50: 8.81 µM

CN(C)S(=O)(=O)c1ccc(NC(=S)NC(=O)Cc2ccccc2)cc1 [N-[[4-(dimethylsulfamoyl)phenyl]carbamothioyl]-2-phenyl-ethanamide]
EC50: > 160 µM

Cc1cccc(NS(=O)(=O)c2ccc(Oc3ccccc3)cc2)n1 [SMR000071466]
EC50: 12.5 µM

Cn1cnc(S(=O)(=O)Nc2ccc(OC(F)(F)F)cc2)c1 [SMR000314513]
EC50: 24.5 µM
